According to publication PMC8179049 (Chemical Science, 2020):
Several values for one entry are separate records, joined by “and”; a condition that tells them apart may be missing. Equal values may be shown once. Read-outs that look alike come from different tables or passages of the source.

Columns and labels:
[1] = target: T1, human AspH (His6-AspH315-758) (Homo sapiens, UniProt Q12797); experiment: SPE-MS AspH inhibition assay; format: biochemical; conditions: mean ± SD, n = 3
T1 construct: N-Terminally His6-tagged human AspH315-758 (His6-AspH315-758) was produced in Escherichia coli BL21 (DE3); made in house; host or cells: Escherichia coli BL21 (DE3), pET-28a(+) vector
T1 sequence (Q12797 315-758): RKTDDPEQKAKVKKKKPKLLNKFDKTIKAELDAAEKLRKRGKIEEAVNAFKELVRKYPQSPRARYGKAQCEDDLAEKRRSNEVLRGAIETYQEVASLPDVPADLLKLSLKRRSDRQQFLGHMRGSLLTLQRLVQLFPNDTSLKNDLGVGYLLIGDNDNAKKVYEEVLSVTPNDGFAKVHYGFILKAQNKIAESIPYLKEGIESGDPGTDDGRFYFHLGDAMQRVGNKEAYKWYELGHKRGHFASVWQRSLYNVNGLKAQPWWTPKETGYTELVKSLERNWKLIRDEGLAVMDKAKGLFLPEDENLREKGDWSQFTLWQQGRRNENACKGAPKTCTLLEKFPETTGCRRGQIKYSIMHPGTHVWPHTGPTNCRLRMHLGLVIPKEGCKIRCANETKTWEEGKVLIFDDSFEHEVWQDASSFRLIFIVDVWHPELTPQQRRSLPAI
Experimental: 6. Recombinant AspH production and purification
N-Terminally His6-tagged human AspH315-758 (His6-AspH315-758) was produced in Escherichia coli BL21 (DE3) cells using a pET-28a(+) vector and purified by Ni(II)-affinity chromatography (HisTrap HP column, GE Healthcare; 1 mL/min flow rate) and size-exclusion chromatography (HiLoad 26/60 Superdex 75 pg 300 mL column; 1 mL/min) using an ÄKTA pure machine (GE Healthcare) as previously reported.1,4 AspH was >95% pure by SDS-PAGE and MS analysis and had the anticipated mass (calculated for His6-AspH315-758: 54519 Da, found: 54519 Da).1 Purified AspH was stored in 50 mM HEPES buffer (pH 7.5, 150 mM NaCl) at a concentration of 125 μM at -78 °C; fresh aliquots were used for all AspH assays.
7. AspH substrate synthesis
AspH substrates were designed based on the sequence of EGFD1 of human coagulation factor X (hFX amino acids 86-124), which is a reported cellular AspH substrate.2 All substrates were prepared with a C-terminal amide.
The hFX-EGFD186-124-4Ser peptide (hFX amino acids 86-124; Supporting Figure S1c),1 used for crystallography experiments, was synthesized by solid phase peptide synthesis (SPPS) and purified by GL Biochem (Shanghai) Ltd (Shanghai, China). The thioether linked cyclic peptide hFX-CP101-119 (hFX amino acids 101-119; Supporting
Figure S1d), which was used as substrate in AspH SPE-MS assays,4 was synthesized by an intramolecular thioetherification cyclization reaction from the corresponding linear peptide (D-Ala replacing Cys101hFX and Ser replacing Cys112hFX) which was obtained by microwave-assisted solid phase peptide synthesis using the Fmoc-protection strategy as described.4
8. AspH inhibition assays […]
water; ammonium iron(II) sulfate hexahydrate, FAS, (NH 4)2Fe(SO4)2·6H2O: 400 mM in 20 mM HCl diluted to 1 mM in Milli-Q® Ultrapure water) were freshly prepared each day from commercially sourced solids (Sigma […]
(Greiner) in an approximately three-fold and 11-point dilution series (100 μM top concentration) using an ECHO 550 acoustic dispenser (Labcyte). DMSO and 2,4 -PDCA were used as negative and positive controls , respectively .
The final DMSO concentration was kept constant at 0.5%v/v throughout all experiments (using the DMSO backfill option of the acoustic dispenser). Each reaction was performed in technical duplicates in adjacent wells of the assay plates; additionally, assays were performed in three independent technical duplicates on different days using different DMSO inhibitor solutions. […]
dispensed across the inhibitor-containing 384-well assay plates with a multidrop dispenser (ThermoFischer Scientific) at 20°C under an ambient atmosphere. The plates were subsequently centrifuged (1000 rpm, 30 s) and incubated for 15 minutes at 20°C. The Substrate Mixture (25 μL/well), containing 2.0 μM hFX-CP101-119, 200 μM […]
Note: The multidrop dispenser ensured proper mixing of the Enzyme and the Substrate Mixtures which was essential for assay reproducibility. The plates were centrifuged (1000 rpm, 30 s) and af ter incubating for 7 minutes, […]
centrifuged (1000 rpm, 60 s) and analysed by MS.
The mass spectrometer parameters were:
Data were exported into Microsoft
The standard deviation (SD) of three
Z’-factors were calculated
9. Determination of kinetic parameters […]
in 50 mM HEPES buffer (pH 7.5).

human AspH = target: T2, human AspH (Homo sapiens, UniProt Q12797); experiment: SPE-MS AspH turnover assay in the absence of 2OG (2OG derivative as cosubstrate); conditions: 330 μM 2OG or 2OG derivative, 0.1 μM AspH, 2 μM hFX-CP101-119, 50 μM FAS, t = 15 min;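 further: percent conversion = hydroxylated cyclic peptide peak area relative to summed substrate plus product areas, taken from +2 charge state ion chromatograms by solid phase extraction MS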
T2 sequence (Q12797 315-758): T1 sequence (Q12797 315-758)
Experimental: AspH assays were performed as described in the ESI, ^† data are shown as the mean of three independent runs (n = 3; mean ± standard deviation, SD).
AspH assays were performed as described in Section 9 of the Supporting Information using 0.1 μM AspH, 2 μM
a positive control in the SPE-MS AspH turnover assays (Entry 1).
dependent conversion of the AspH substrate hFX-CP101-119 (Supporting Figure S1d). %-Substrate conversion is
AspH assays were performed as
described in Section 9 of the Supporting Information using 0.1 μM AspH, 2 μM hFX-CP101-119, 50 μM FAS, 330
AspH inhibition assays were incubated for 6 rather than 7 minutes before the enzyme reaction was
stopped by the addition of 10%v/v aqueous formic acid.
MS-analyses were performed using a RapidFire RF 365 high-throughput sampling robot (Agilent) attached to an
iFunnel Agilent 6550 accurate mass quadrupole time-of-flight (Q-TOF) mass spectrometer operated in the positive
ionization mode. Assay samples were aspirated under vacuum for 0.4 s and loaded onto a C4 solid phase extraction (SPE) cartridge. After loading, the C4 SPE cartridge was washed with 0.1%v/v aqueous formic acid to remove
non-volatile buffer salts (5 s, 1.5 mL/min). The peptide was eluted from the SPE cartridge with 0.1%v/v aqueous
formic acid in 85/15v/v acetonitrile/water into the mass spectrometer (5 s, 1.25 mL/min) and the SPE cartridge re-
equilibrated with 0.1%v/v aqueous formic acid (1 s, 1.25 mL/min). The mass spectrometer parameters were:
capillary voltage (4000 V), nozzle voltage (1000 V), fragmentor voltage (365 V), gas temperature (280°C), gas
flow (13 L/min), sheath gas temperature (350°C), sheath gas flow (12 L/min). The m/z +2 charge states of the
cyclic peptide (substrate) and the hydroxylated cyclic peptide (product) were used to extract ion chromatogram
data, peak areas were integrated using RapidFire Integrator software (Agilent). Data were exported into Microsoft
Excel and used to calculate the % conversion of the hydroxylation reaction using the equation: % conversion =
100 x (integral product cyclic peptide) / (integral substrate cyclic peptide + integral product cyclic peptide).
Normalized dose-response curves (2,4-PDCA and DMSO controls) were obtained from the raw data by non-linear
regression (GraphPad Prism 5) and used to determine IC50-values. The standard deviation (SD) of three
independent IC50 determinations (n = 3) was calculated using GraphPad Prism 5. Z’-factors were calculated
according to the cited literature using Microsoft Excel (Supporting Figure S3).14

[2] = 50 nM His6-AspH315–758, 1.0 μM hFX-CP101–119, 3 μM 2OG, read-out: IC50 (inhibition of AspH)
[3] = 50 nM His6-AspH315–758, 1.0 μM hFX-CP101–119, 3 μM 2OG
[4] = IC50 at 200 μM 2OG (ESI Table S1), assay concentration of 200 μM 2OG
[5] = IC50 at 400 μM 2OG (ESI Table S1), assay concentration of 400 μM 2OG
[6] = IC50 at 600 μM 2OG (ESI Table S1), assay concentration of 600 μM (0.6 mM) 2OG
[7] = 50 nM His6-AspH315-758, 1.0 μM hFX-CP101-119, read-out: IC50 (ESI Fig. S4)

Compound | melting point | IC50 [1, 2] | AspH-catalyzed substrate conversion (hydroxylation of hFX-CP101-119) (human AspH) [%] | IC50 (inhibition of AspH) [1, 3] | further results
O=C(O)CC(Cc1ccc(F)cc1)C(=O)C(=O)O (centres unmarked) [compound 22] | > 250 °C (dec.) | 2.6 ± 0.8 µM | < 1 | – | –
CC(CC(=O)C(=O)O)C(=O)O (centres unmarked) [compound 26, 4-methyl-2OG] | – | – | ~10 | did not inhibit | IC50 (inhibition of AspH) ([1]; 50 nM His6-AspH315–758, 1.0 μM hFX-CP101–119, 3 μM 2OG, listed as C00031): Inactive
CCC(CC(=O)C(=O)O)C(=O)O (centres unmarked) [compound 27] | – | 0.61 ± 0.09 µM | < 1 | – | –
CCCC(CC(=O)O)C(=O)C(=O)O (centres unmarked) [compound 18] | – | ~5.7 µM and 5.7 µM | < 1 | – | –
O=C(O)CC(Cc1ccccc1)C(=O)C(=O)O (centres unmarked) [compound 21] | > 250 °C (dec.) | ~1.6 µM and 1.6 µM | < 1 | – | –
CCC(CC(=O)O)C(=O)C(=O)O (centres unmarked) [compound 17, 3-ethyl-2OG] | – | ~1.2 µM and 1.2 µM | < 1 | – | IC50 [1, 4]: 22.4 ± 3.2 µM; IC50 [1, 5]: 35.3 ± 9.9 µM; IC50 [1, 6]: 54.9 ± 10.8 µM
O=C(O)CC(CCCc1ccccc1)C(=O)C(=O)O (centres unmarked) [compound 20] | > 220 °C (dec.) | ~6.8 µM and 6.8 µM | < 1 | – | –
Cc1cc(C)cc(CC(CC(=O)O)C(=O)C(=O)O)c1 (centres unmarked) [compound 25] | – | 4.7 ± 0.2 µM | < 1 | – | –
COc1ccc(CC(CC(=O)O)C(=O)C(=O)O)cc1 (centres unmarked) [compound 24] | > 260 °C (dec.) | 3.6 ± 1.4 µM | < 1 | – | –
CCCC(CC(=O)C(=O)O)C(=O)O (centres unmarked) [compound 28] | – | 0.47 ± 0.08 µM | < 1 | – | –
CC(C)CC(CC(=O)C(=O)O)C(=O)O (centres unmarked) [compound 29] | – | 0.51 ± 0.12 µM | < 1 | – | IC50 [1, 4]: 10.8 ± 2.7 µM; IC50 [1, 5]: 16.8 ± 2.5 µM; IC50 [1, 6]: 26.9 ± 7 µM
O=C(O)CNC(=O)C(=O)O [NOG, N-oxalylglycine, reference compound] | – | ~1 µM | – | – | IC50 [1, 7]: 0.99 ± 0.31 µM
CC(C)(C)CCC(CC(=O)O)C(=O)C(=O)O (centres unmarked) [compound 19] | – | ~48.2 µM and 48.2 µM | < 1 | – | –

Now from value to compound, other results behind:

melting point | IC50 [1, 2] | AspH-catalyzed substrate conversion (hydroxylation of hFX-CP101-119) (human AspH) [%] | IC50 (inhibition of AspH) [1, 3] | Compound | further results
– | ~3.3 µM and 3.3 µM | < 1 | – | O=C(O)C(=O)C1(C(=O)O)CC1 [compound 48] | –
– | – | < 1 | did not inhibit | O=C(O)C(=O)c1cccc(C(=O)O)c1 [compound 40, 3-carboxyphenylglyoxylic acid] | IC50 (inhibition of AspH) ([1]; 50 nM His6-AspH315–758, 1.0 μM hFX-CP101–119, 3 μM 2OG, listed as C00009): Inactive
– | ~19.3 µM and 19.3 µM | < 1 | – | O=C(O)C(=O)[C@@H]1[C@@H](C(=O)O)[C@@H]2C=C[C@H]1C2 (racemic) [compound 36] | –
– | – | ~8 | Inactive | O=C(O)C(=O)c1ccc(C(=O)O)c(Br)c1 [compound 45] | –
– | – | < 1 | did not inhibit | O=C(O)C(=O)c1cscc1C(=O)O [compound 37] | IC50 (inhibition of AspH) ([1]; 50 nM His6-AspH315–758, 1.0 μM hFX-CP101–119, 3 μM 2OG, listed as C00032): Inactive
> 310 °C (dec.) | – | ~45 | Inactive | O=C(O)C(=O)c1ccc(C(=O)O)cc1F [compound 42] | –
– | ~5.2 µM and 5.2 µM | < 1 | – | CC1(C)C(C(=O)O)C1C(=O)C(=O)O (centres unmarked) [compound 35] | –
> 260 °C (dec.) | – | ~8 | Inactive | O=C(O)C(=O)c1ccc(C(=O)O)c(F)c1 [compound 43] | –
> 285 °C (dec.) | ~12.9 µM and 12.9 µM | ~15 | – | O=C(O)C(=O)c1ccc(C(=O)O)s1 [compound 38] | –
> 220 °C (dec.) | 0.17 ± 0.03 µM | < 1 | – | O=C(O)C(=O)CC(Cc1ccc2ccccc2c1)C(=O)O (centres unmarked) [compound 33] | IC50 [1, 4]: 2.5 ± 0.4 µM; IC50 [1, 5]: 3.1 ± 0.3 µM; IC50 [1, 6]: 5.6 µM and ~5.6 µM
> 300 °C (dec.) | – | ~8 | did not inhibit | O=C(O)C(=O)C12CCC(C(=O)O)(CC1)CC2 [compound 47] | IC50 (inhibition of AspH) ([1]; 50 nM His6-AspH315–758, 1.0 μM hFX-CP101–119, 3 μM 2OG, listed as C00030): Inactive
> 220 °C (dec.) | 0.25 ± 0.05 µM | < 1 | – | O=C(O)C(=O)CC(CCCc1ccccc1)C(=O)O (centres unmarked) [compound 31] | –
> 320 °C (dec.) | – | ~5 | Inactive | Cc1cc(C(=O)O)ccc1C(=O)C(=O)O [compound 46] | –
– | ~2.9 µM | – | – | CC(C)(NC(=O)C(=O)O)C(=O)O [compound 49, N-oxalyl-α-methylalanine] | IC50 [1, 7]: 2.9 ± 1.3 µM
– | – | < 1 | did not inhibit | O=C(O)C(=O)c1ccccc1C(=O)O [compound 39] | IC50 (inhibition of AspH) ([1]; 50 nM His6-AspH315–758, 1.0 μM hFX-CP101–119, 3 μM 2OG, listed as C00006): Inactive
> 300 °C (dec.) | – | ~20 | Inactive | O=C(O)C(=O)c1ccc(C(=O)O)cc1Br [compound 44] | –
– | 0.7 ± 0.11 µM | < 1 | – | CC(C)(C)CCC(CC(=O)C(=O)O)C(=O)O (centres unmarked) [compound 30] | –
